Laboratory results from patent publication US8088806B2 (Achillion Pharmaceuticals, Inc., priority 2005, dated 2012).

Test system: HCV replicon
Experiment: Replicon based assay of HCV replication inhibition (NPT ELISA)
Format: cell-based, Hepatitis C virus
Details: Hepatitis C virus, replicon based assay of HCV replication inhibition; Table II; read-out: Activity
Summary of the method: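 Huh-7 cells carrying a bicistronic HCV replicon (neo, EMCV-IRES-driven NS3–NS5B) treated overnight after seeding with usually 6 concentrations, 10 to 0.03 micromolar, for three days at 37° C without G418. Replication read as NPT level by captured ELISA; matched-DMSO wells and interferon alpha as controls.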

| Structure (SMILES) | EC50 [nM] |
| --- | --- |
| CCCCCCCOc1ccc(Nc2nc(CC)cs2)cc1 [compound 403, 4-ethyl-N-(4-(heptyloxy)phenyl)thiazol-2-amine] | < 1000 |
| CCCCCOc1ccc(Nc2nc(-c3ccc(O)c(O)c3)cs2)cc1C(F)(F)F [compound 404, 4-(2-(3-(trifluoromethyl)-4-(pentyloxy)phenylamino)thia-zol-4-yl)benzene-1,2-diol] | < 1000 |
| CCCCCOc1ccc(Nc2nc(-c3ccc(Cl)s3)cs2)cc1C(F)(F)F [compound 405] | < 1000 |
| CCCCCOc1ccc(Nc2nc(-c3ccc(Br)cc3)cs2)cc1C(F)(F)F [compound 406, 4-(4-bromophenyl)-N-(3-(trifluoromethyl)-4-(pentyloxy)phenyl)thiazol-2-amine] | < 1000 |
| CCCCCOc1ccc(Nc2nc(-c3ccc4[nH]c(=O)oc4c3)cs2)cc1C(F)(F)F [compound 407, 6-(2-(3-(trifluoromethyl)-4-(pentyloxy)phenylamino)thia-zol-4-yl)benzo[d]oxazol-2(3H)-one] | < 1000 |
| CCCCCOc1ccc(Nc2nc(-c3cccc(C(=O)O)c3)cs2)cc1C(F)(F)F [compound 408, 3-(2-(3-(trifluoromethyl)-4-(pentyloxy)phenylamino)thia-zol-4-yl)benzoic acid] | < 1000 |
| CCCCCOc1ccc(Nc2nc(-c3ccccn3)cs2)cc1C(F)(F)F [compound 409, N-(3-(trifluoromethyl)-4-(pentyloxy)phenyl)-4-(pyridin-2-yl)thiazol-2-amine] | < 1000 |
| CCCCCOc1ccc(Nc2nc(-c3c[nH]c4ccccc34)cs2)cc1C(F)(F)F [compound 410, N-(3-(trifluoromethyl)-4-(pentyloxy)phenyl)-4-(1H-indol-3-yl)thiazol-2-amine] | < 1000 |
| CCCCCOc1ccc(Nc2nc(-c3ccc(-c4ccccn4)s3)cs2)cc1C(F)(F)F [compound 411, N-(3-(trifluoromethyl)-4-(pentyloxy)phenyl)-4-(5-(pyridin-2-yl)thiophen-2-yl)thiazol-2-amine] | < 1000 |
| CCCCCOc1ccc(Nc2nc(-c3nc4ccccc4s3)cs2)cc1C(F)(F)F [compound 412, 4-(benzo[d]thiazol-2-yl)-N-(3-(trifluoromethyl)-4-(pentyloxy)phenyl)thiazol-2-amine] | < 1000 |
| CCCCCOc1ccc(Nc2nc(-c3cc4ccccc4o3)cs2)cc1C(F)(F)F [compound 413, 4-(benzofuran-2-yl)-N-(3-(trifluoromethyl)-4-(pentyloxy)phenyl)thiazol-2-amine] | < 1000 |
| CCCCCOc1ccc(Nc2nc(-c3sc(-c4cnccn4)nc3C)cs2)cc1C(F)(F)F [compound 414, N-(3-(trifluoromethyl)-4-(pentyloxy)phenyl)-4-(4-methyl-2-(pyrazin-2-yl)thiazol-5-yl)thiazol-2-amine] | < 1000 |
| CCCCCOc1ccc(Nc2nc(CC)cs2)cc1C(F)(F)F [compound 415, 4-ethyl-N-(3-(trifluoromethyl)-4-(pentyloxy)phenyl)thiazol-2-amine] | < 1000 |
| CCCCCCCCOc1ccc(Nc2nc(-c3ccncc3)cs2)cc1 [compound 416, N-(4-(octyloxy)phenyl)-4-(pyridin-4-yl)thiazol-2-amine] | < 1000 |
| CCCCCOc1ccc(Nc2nc(-c3ccncc3)cs2)cc1F [compound 417, N-(3-fluoro-4-(pentyloxy)phenyl)-4-(pyridin-4-yl)thiazol-2-amine] | 1000 to 10000 |
| CCCCCOc1ccc(Nc2nc(-c3ccccn3)cs2)cc1F [compound 418, N-(3-fluoro-4-(pentyloxy)phenyl)-4-(pyridin-2-yl)thiazol-2-amine] | < 1000 |
| CCCCCOc1ccc(Nc2nc(-c3cc4ccccc4o3)cs2)cc1F [compound 419, 4-(benzofuran-2-yl)-N-(3-fluoro-4-(pentyloxy)phenyl)thiazol-2-amine] | 1000 to 10000 |
| CCCCCCCOc1ccc(Nc2nc(-c3ccc(F)cc3)cs2)cc1 [compound 420, 4-(4-fluorophenyl)-N-(4-(heptyloxy)phenyl)thiazol-2-amine] | < 1000 |
| CCCCCCCOc1ccc(Nc2nc(-c3ccc(Cl)c(Cl)c3)cs2)cc1 [compound 421, 4-(3,4-dichlorophenyl)-N-(4-(heptyloxy)phenyl)thiazol-2-amine] | < 1000 |
| CCCCCCCOc1ccc(Nc2nc(-c3ccc(Cl)cc3)cs2)cc1 [compound 422, 4-(4-chlorophenyl)-N-(4-(heptyloxy)phenyl)thiazol-2-amine] | < 1000 |
| CCCCCCCOc1ccc(Nc2nc(-c3ccc(F)cc3F)cs2)cc1 [compound 423, 4-(2,4-difluorophenyl)-N-(4-(heptyloxy)phenyl)thiazol-2-amine] | < 1000 |
| CCCCCCCOc1ccc(Nc2nc(-c3ccc(OC)cc3)cs2)cc1 [compound 424, N-(4-(heptyloxy)phenyl)-4-(4-methoxyphenyl)thiazol-2-amine] | < 1000 |
| CCCCCCCOc1ccc(Nc2nc(-c3ccc(OCC(=O)O)cc3)c(C)s2)cc1 [compound 425, 2-(4-(2-(4-(heptyloxy)phenylamino)-5-methylthiazol-4-yl)phenoxy)acetic acid] | < 1000 |

| Structure (SMILES) | EC50 [nM] |
| --- | --- |
| CCCCCOc1ccc(Nc2nc(-c3ccc(C(=O)O)cc3)cs2)cc1F [compound 426, 4-(2-(3-fluoro-4-(pentyloxy)phenylamino)thia-zol-4-yl)benzoic acid] | 1000 to 10000 |
| CCCCCOc1ccc(Nc2nc(CC)cs2)cc1F [compound 427, 4-ethyl-N-(3-fluoro-4-(pentyloxy)phenyl)thiazol-2-amine] | 1000 to 10000 |
| COc1ccc(Cl)cc1Nc1nc(-c2cccnc2)cs1 [compound 428, N-(5-chloro-2-methoxyphenyl)-4-(pyridin-3-yl)thiazol-2-amine] | 1000 to 10000 |
| CC(=O)Nc1ccc(Nc2nc(-c3cccs3)cs2)cc1 [compound 429, N-(4-(4-(thiophen-2-yl)thiazol-2-ylamino)phenyl)acetamide] | > 10000 |
| CCCCCOc1c(F)cc(Nc2nc(-c3cccnc3)cs2)cc1F [compound 430, N-(3,5-difluoro-4-(pentyloxy)phenyl)-4-(pyridin-3-yl)thiazol-2-amine] | < 1000 |
| CCCCCOc1ccc(Nc2nc(-c3cc(OC)ccc3OC)cs2)cc1C(F)(F)F [compound 431, N-(3-(trifluoromethyl)-4-(pentyloxy)phenyl)-4-(2,5-dimethoxyphenyl)thiazol-2-amine] | 1000 to 10000 |
| CCCCCCCOc1ccc(Nc2nc(-c3cc(OC)ccc3OC)cs2)cc1 [compound 432, N-(4-(heptyloxy)phenyl)-4-(2,5-dimethoxyphenyl)thiazol-2-amine] | < 1000 |
| CCCCCOc1ccc(Nc2nc(-c3cc(OC)ccc3OC)cs2)cc1F [compound 433, N-(3-fluoro-4-(pentyloxy)phenyl)-4-(2,5-dimethoxyphenyl)thiazol-2-amine] | < 1000 |
| CCCCCOc1ccc(Nc2nc(-c3cccc(O)c3)cs2)cc1C(F)(F)F [compound 434, 3-(2-(3-(trifluoromethyl)-4-(pentyloxy)phenylmino)thia-zol-4-yl)phenol] | 1000 to 10000 |
| CCCCCCCOc1ccc(Nc2nc(-c3cccc(O)c3)cs2)cc1 [compound 435, 3-(2-(4-(heptyloxy)phenylamino)thia-zol-4-yl)phenol] | < 1000 |
| CCCCCCCCOc1ccc(Nc2nc(-c3cccc(O)c3)cs2)cc1 [compound 436, 3-(2-(4-(octyloxy)phenylamino)thia-zol-4-yl)phenol] | < 1000 |
| CCCCCOc1ccc(Nc2nc(-c3ccc(NC(C)=O)cc3)cs2)cc1C(F)(F)F [compound 437, N-(4-(2-(3-(trifluoromethyl)-4-(pentyloxy)phenylamino)thia-zol-4-yl)phenyl)acetamide] | 1000 to 10000 |
| CCCCCCCOc1ccc(Nc2nc(-c3ccc(NC(C)=O)cc3)cs2)cc1 [compound 438, N-(4-(2-(4-(heptyloxy)phenylamino)thia-zol-4-yl)phenyl)acetamide] | < 1000 |
| CCCCCOc1ccc(Nc2nc(-c3ccc(NC(C)=O)cc3)cs2)cc1F [compound 439, N-(4-(2-(3-fluoro-4-(pentyloxy)phenylamino)thia-zol-4-yl)phenyl)acetamide] | < 1000 |
| COc1ccc(OC)c(Nc2ncc(-c3cccs3)s2)c1 [compound 440, N-(2,5-dimethoxyphenyl)-5-(thiophen-2-yl)thiazol-2-amine] | 1000 to 10000 |
| CCCCCOc1ccc(Nc2nc(-c3cccnc3C)cs2)cc1C(F)(F)F [compound 441, N-(3-(trifluoromethyl)-4-(pentyloxy)phenyl)-4-(2-methylpyridin-3-yl)thiazol-2-amine] | < 1000 |
| CCCCCCCCOc1ccc(Nc2nc(-c3cccnc3C)cs2)cc1 [compound 442, 4-(2-methylpyridin-3-yl)-N-(4-(octyloxy)phenyl)thiazol-2-amine] | < 1000 |
| CCCCCOc1ccc(Nc2nc(-c3cccnc3)c(C(=O)OC)s2)cc1C(F)(F)F [compound 443, methyl 2-(3-(trifluoromethyl)-4-(pentyloxy)phenylamino)-4-(pyridin-3-yl)thiazol-5-carboxylate] | < 1000 |
| CCCCCCCCOc1ccc(Nc2nc(-c3cccnc3)c(C(=O)OC)s2)cc1 [compound 444, meethyl 2-(4-(octyloxy)pheenylamino)-4-(pyridin-3-yl)thiazol-5-carboxylate] | 1000 to 10000 |
| CCCCCOc1ccc(Nc2nc(-c3c(C)cc(C)nc3C)cs2)cc1C(F)(F)F [compound 445, N-(3-(trifluoromethyl)-4-(pentyloxy)phenyl)-4-(2,4,6-trimethylpyridin-3-yl)thiazol-2-amine] | > 10000 |
| CCCCCCCOc1ccc(Nc2nc(-c3c(C)cc(C)nc3C)cs2)cc1 [compound 446, N-(4-(heptyloxy)phenyl)-4-(2,4,6-trimethylpyridin-3-yl)thiazol-2-amine] | > 10000 |
| CCCCCCCCOc1ccc(Nc2nc(-c3c(C)cc(C)nc3C)cs2)cc1 [compound 447, 4-(2,4,6-trimethylpyridin-3-yl)-N-(4-(octyloxy)phenyl)thiazol-2-amine] | > 10000 |
| CCCCCCCOc1ccc(Nc2nc(-c3ccc(O)c(C(N)=O)c3)cs2)cc1 [compound 448, 5-(2-(4-- (heptyloxy)phenylamino)thia-zol-4-yl)-2-hydroxybenzamide] | < 1000 |
